One data set deals with P388 cell lines. Particulars: cell line in culture; background statement; cited from earlier work.
Another data set concerns A549 cell lines. Particulars: cell line in culture; background statement; cited from earlier work.
A further data set deals with lung cancer cell lines. Conditions: acting as a Type IV microtubule poison; background statement; cited from earlier work.
A further data set relates to fertilised sea urchin. Conditions: fertilised sea urchin assay; background statement; cited from earlier work.

Turning to `COc1ccc(-c2c3n(c4c(=O)oc5cc(O)c(OC)cc5c24)CCc2cc(O)c(OC)cc2-3)cc1O` [Lamellarin L], the “cytotoxicity against P388” value in the data set with P388 cell lines was “comparable and significant cytotoxicity”. Also, the “cytotoxicity against A549” value in the data set with A549 cell lines is “comparable and significant cytotoxicity”.

`COc1ccc(-c2c3c4cc(OC)c(O)cc4oc(=O)c3n3ccc4cc(O)c(OC)cc4c23)cc1O` [Lamellarin N]: the “activity in lung cancer cell lines” value in the data set on lung cancer cell lines was “exhibit activity”.

With `COc1cc(-c2c3c4cc(OC)c(O)cc4oc(=O)c3n3ccc4cc(O)c(OC)cc4c23)ccc1O` [Lamellarin D], in the data set on fertilised sea urchin, the “inhibition of cell division” value was “inhibition of cell division”.

As for Lamellarin K, the “cytotoxicity against P388” value in the data set on P388 cell lines is “comparable and significant cytotoxicity”. Moreover, the “cytotoxicity against A549” value with A549 cell lines is “comparable and significant cytotoxicity”.

Consider `COc1cc(-c2c3n(c4c(=O)oc5cc(O)c(OC)cc5c24)CCc2c-3cc(OC)c(OC)c2OC)ccc1O` [Lamellarin C], for which the “inhibition of cell division” value in the data set with fertilised sea urchin is recorded as “inhibition of cell division”.

Take Lamellarin I: the “cytotoxicity against P388” value in the data set with P388 cell lines was “comparable and significant cytotoxicity”. Besides, the “cytotoxicity against A549” value with A549 cell lines was “comparable and significant cytotoxicity”.

Consider `COc1cc(-c2c3n(c4c(=O)oc5cc(O)c(OC)cc5c24)CCc2cc(OC)c(OC)cc2-3)ccc1O` [Compound 35, 10-Deoxylamellarin K], for which the melting point lay within 292 to 294 °C.
